Tests used:
[1] = tested on: normal NK cells expanded with K562-aAPC; assay: percent inhibition of viability; higher = more inhibition; conditions: 72 h, IL-2 2.5 ng/mL
Description: (§1)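 Drug sensitivity and resistance testing on K562-aAPC-expanded normal NK cells: 5 concentrations (10-fold steps over a 10,000-fold range), 72 h at 37 °C, viability by CellTiter-Glo normalised to DMSO and benzethonium chloride controls; DSS from the fitted curve.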

[2] = tested on: DERL-7 (IL-2 2.5 ng/mL); assay: as above; conditions: 72 h
[3] = tested on: IMC-1 (IL-2 20 ng/mL); assay: as above; conditions: 72 h
[4] = tested on: KAI3 (IL-2 2.5 ng/mL); assay: as above; conditions: 72 h
[5] = tested on: KHYG-1 (IL-2 2.5 ng/mL); assay: as above; conditions: 72 h
[6] = tested on: NK-92 (IL-2 2.5 ng/mL); assay: as above; conditions: 72 h
[7] = tested on: NK-YS (IL-2 2.5 ng/mL); assay: as above; conditions: 72 h
[8] = tested on: NKL (IL-2 2.5 ng/mL); assay: as above; conditions: 72 h
[9] = tested on: SNK-6 (IL-2 2.5 ng/mL); assay: as above; conditions: 72 h
[10] = tested on: YT (IL-2 2.5 ng/mL); assay: as above; conditions: 72 h
[11] = tested on: normal primary NK cells, pool 1 (3 donors) (IL-2 2.5 ng/mL); assay: as above; conditions: 72 h
[12] = tested on: normal primary NK cells, pool 1 (3 donors), resting (IL-2 0 ng/mL); assay: as above; conditions: 72 h
[13] = tested on: normal primary NK cells, pool 2 (3 donors) (IL-2 2.5 ng/mL); assay: as above; conditions: 72 h
[14] = tested on: normal primary NK cells, pool 3 (3 donors) (IL-2 2.5 ng/mL); assay: as above; conditions: 72 h
[15] = tested on: normal NK cells expanded with K562-aAPC; assay: drug sensitivity score (DSS) (DSS units); higher = more sensitive; extreme values may be limits of the assay; conditions: 72 h; IL-2 2.5 ng/mL
Description: as §1

[16] = tested on: DERL-7 (IL-2 2.5 ng/mL); assay: as above; conditions: 72 h
[17] = tested on: IMC-1 (IL-2 20 ng/mL); assay: as above; conditions: 72 h
[18] = tested on: KAI3 (IL-2 2.5 ng/mL); assay: as above; conditions: 72 h
[19] = tested on: KHYG-1 (IL-2 2.5 ng/mL); assay: as above; conditions: 72 h
[20] = tested on: NK-92 (IL-2 2.5 ng/mL); assay: as above; conditions: 72 h
[21] = tested on: NK-YS (IL-2 2.5 ng/mL); assay: as above; conditions: 72 h
[22] = tested on: NKL (IL-2 2.5 ng/mL); assay: as above; conditions: 72 h
[23] = tested on: SNK-6 (IL-2 2.5 ng/mL); assay: as above; conditions: 72 h
[24] = tested on: YT (IL-2 2.5 ng/mL); assay: as above; conditions: 72 h
[25] = tested on: normal primary NK cells, pool 1 (3 donors) (IL-2 2.5 ng/mL); assay: as above; conditions: 72 h
[26] = tested on: normal primary NK cells, pool 1 (3 donors), resting (IL-2 0 ng/mL); assay: as above; conditions: 72 h
[27] = tested on: normal primary NK cells, pool 2 (3 donors) (IL-2 2.5 ng/mL); assay: as above; conditions: 72 h
[28] = tested on: normal primary NK cells, pool 3 (3 donors) (IL-2 2.5 ng/mL); assay: as above; conditions: 72 h

CC[C@]1(O)C[C@H]2CN(CCc3c([nH]c4ccccc34)[C@@](C(=O)OC)(c3cc4c(cc3OC)N(C=O)[C@H]3[C@@](O)(C(=O)OC)[C@H](OC(C)=O)[C@]5(CC)C=CCN6CC[C@]43[C@@H]65)C2)C1 [Vincristine] (max concentration tested 1000 nM)
percent inhibition of viability [%]
Conditions | 0.1 nM | 1 nM | 10 nM | 100 nM | 1000 nM
[1] | -6.33 | -6.29 | 31.6 | 59 | 62.6
[2] | -4.76 | -3.31 | 99.7 | 100 | 99.9
[3] | -6.56 | -3.8 | 99.6 | 101 | 101
[4] | -2.89 | 0.47 | 50 | 71.7 | 82.8
[5] | -4.8 | 0.56 | 99.8 | 108 | 109
[6] | 0.11 | -12.7 | 50.9 | 101 | 106
[7] | -8.13 | -3.11 | 72.6 | 72.9 | 87.9
[8] | -4.74 | 5.25 | 97.5 | 99.9 | 101
[9] | -5.32 | 2.61 | 81.6 | 86.6 | 96.8
[10] | -6.99 | -4.04 | 97.3 | 106 | 106
[11] | -8.19 | 4.79 | 8.62 | 16.3 | 23.7
[12] | -21.8 | 5.88 | 11 | 33.2 | 38.4
[13] | -7.02 | 11 | 16.4 | 18.7 | 25.8
[14] | -10 | 9.15 | 8.72 | 4.62 | 15.8

Conditions | drug sensitivity score
[15] | 15.5
[16] | 30.1
[17] | 30.1
[18] | 20.7
[19] | 30.5
[20] | 24.3
[21] | 24.4
[22] | 30.9
[23] | 27.4
[24] | 29.8
[25] | 2.75
[26] | 6.94
[27] | 4.98
[28] | 0.39

Cn1c(Nc2ccc(C(F)(F)F)cc2)nc2cc(Oc3ccnc(-c4ncc(C(F)(F)F)[nH]4)c3)ccc21 [RAF265] (max concentration tested 1000 nM)
percent inhibition of viability [%]
Conditions | 0.1 nM | 1 nM | 10 nM | 100 nM | 1000 nM
[1] | -1.93 | -2.9 | -2.68 | 12.1 | 30.9
[2] | -3.61 | 1.74 | -1.22 | 22.4 | 46.9
[3] | -5.99 | -2.17 | -3.34 | -3.31 | 12
[4] | -0.58 | 3.63 | 9.74 | 26.2 | 47.5
[5] | -7.83 | -6.28 | -1.05 | 11.5 | 34.9
[6] | -17.8 | -16.1 | -9.27 | 11.7 | 59.3
[7] | -5.8 | -6.28 | -1.83 | 4.39 | 18.3
[8] | 2.6 | 2.04 | 1.53 | 9.44 | 31.3
[9] | 6.03 | 2.76 | 3.1 | -14.9 | 44.9
[10] | -4.07 | -2.24 | 1.77 | 6.57 | 15.5
[11] | -7.64 | 17.4 | 8.25 | 15.4 | 23
[12] | -7.48 | 14.2 | 11.3 | 45.5 | 69.8
[13] | -11 | 7.1 | -0.02 | -1.76 | 19.7
[14] | -13 | 11.3 | 6.16 | -1.81 | 8.78

Conditions | drug sensitivity score
[15] | 2.97
[16] | 5.33
[17] | 0.01
[18] | 5.82
[19] | 3.28
[20] | 5.13
[21] | 0.99
[22] | 2.71
[23] | 1.66
[24] | 0.52
[25] | 2.83
[26] | 10.2
[27] | 0.47
[28] | 0

From the supplement of paper PMC5908809
